Among the data in ChEMBL document CHEMBL1151998, “Combretatroponeshybrids of combretastatin and colchicine. Synthesis and biochemical evaluation” (Bioorg Med Chem Lett, 1993) are IC50 values, retold here.

Sequence of Tubulin beta chain (Q6B856 whole entry): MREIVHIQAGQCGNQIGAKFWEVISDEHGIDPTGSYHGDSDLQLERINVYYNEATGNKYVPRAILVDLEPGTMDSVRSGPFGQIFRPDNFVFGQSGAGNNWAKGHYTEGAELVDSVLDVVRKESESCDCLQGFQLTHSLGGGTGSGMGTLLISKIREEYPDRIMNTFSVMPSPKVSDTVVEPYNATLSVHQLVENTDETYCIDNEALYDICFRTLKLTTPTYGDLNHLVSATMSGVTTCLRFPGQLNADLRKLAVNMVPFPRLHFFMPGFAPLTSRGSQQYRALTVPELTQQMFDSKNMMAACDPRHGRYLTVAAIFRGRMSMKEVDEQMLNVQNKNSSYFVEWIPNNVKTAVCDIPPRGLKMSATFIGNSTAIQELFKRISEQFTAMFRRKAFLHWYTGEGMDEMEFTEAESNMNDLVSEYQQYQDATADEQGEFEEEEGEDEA

This assay has as its target Tubulin beta chain (Bos taurus, UniProt Q6B856). As to the kind of experiment: Compound was evaluated for in vitro inhibitory activity against polymerization of tubulin into microtubules isolated from bovine brain at 1 mg/mL tubulin concentration. The assay is classed as tissue-based.
For orientation: IC50 means the concentration that inhibits the measured activity by half. Turning to `COc1cc(CCc2cccc(SC)c(=O)c2)cc(OC)c1OC`, the concentration for half-maximal inhibition (IC50) is 12 µM.

With `COc1cc(CCc2cccc(OC)c(=O)c2)cc(OC)c1OC`, the IC50 was determined as 8.6 µM.

In the case of `COc1ccc(-c2ccc(OC)c(=O)cc2)c(OC)c1OC`, the concentration for half-maximal inhibition (IC50) is 2.5 µM.
